The source of these data is US8871794B2, “Small-molecule agonists for type-2 orexin receptor” (Board of Regents, The University of Texas System, priority 2008, dated 2014).

A short description of this series: IV pharmacokinetics in C57BL/6 mice (plasma and brain). Type of series: in vivo, mouse. The conditions noted are these: for Kp: brain/plasma, 10 mg/kg; for half-life: read-out: Terminal half life. The method, then:
Pharmacokinetics: Methods: Chembridge Compound 6037874 (“Yan7874”) was provided as a powdered stock and dissolved in DMSO at 50 mg/ml. The compound was formulated as 5% DMSO/5% Cremaphor EL/90% 5% dextrose, pH 7.2 such that compound could be administered to mice at 10-20 mg/kg in a volume of 0.2 ml by IV bolus.
The mice were sacrificed in groups of three by inhalation overdose of CO2 and blood and brain obtained. Plasma was subsequently isolated from the […] by centrifugation in a refrigerated microcentrifuge at 10,000 rpm for 10′. The brain was washed extensively with PBS, blotted dry, weighed, and snap frozen in liquid nitrogen.
An analytical method was developed to detect Yan7874 using LC/MS/MS.
A standard curve was developed in plasma in the following manner. 100 μl of plasma is spiked with varying concentrations of Yan7874. The plasma is allowed to sit 10′ at room temperature after vortexing. 200 μl of acetonitrile is added to precipitate plasma proteins and release bound drug. After vortexing, the sample is incubated 10′ at room temperature. 700 μl of PBS is added and the sample is centrifuged at 14,000 rpm in a standard microcentrifuge for 5′. 900 μl of supernatant is added to 1 ml of PBS. The entire sample is passed over a Waters OASIS HLB solid phased extraction column already primed by addition of 2 ml methanol and 2 ml H2O. The column is washed once with 2 ml of 5% methanol/2% NH4OH in H2O and once with 2 ml of 5% methanol/2% acetic acid in H2O and compound is eluted by addition of 2 ml of methanol containing 2% NH4OH. 500 μl of this is added to 500 μl of H2O containing 0.2% formic acid (final formic acid 0.1%). Samples are prepared in the same manner without addition of spiked compound. Brain tissue is prepared by homogenizing in 3× volume of PBS (weight in grams×3=volume in ml to add). 100 μl of blank brain lysate is used for preparation of standard curve samples while 100 μl of sample brain lysate is used for preparation of samples. To calculate brain levels, the concentration in ng/ml calculated from the standard curve is multiplied by the total volume of lysate (a value in ml estimated from the 3× volume of PBS added +1× volume to account for brain tissue itself) and then divided by the weight of the brain in grams. A value of 3× above the signal obtained from blank plasma or brain lysate is designated the limit of detection (LOD). The LOD for plasma is 2640 and for brain 459. The limit of quantitation (LOQ) is the lowest concentration at which back calculation yields a concentration within 20% of theoretical. The LOQ for both plasma and brain is 5 ng/ml. In general back calculation of points on both curves yielded values within 20% of theoretical over 4 orders of magnitude (10,000 to 5 ng/ml) for both sample types.

[1] abbreviates: male, C57BL/6, mouse, IV 10 mg/kg, brain.
The mark [2] stands for this setting: male, C57BL/6, mouse, IV 10 mg/kg, plasma.

Read-outs that look alike come from different tables or passages of the source.

In the case of `Cc1ccc(Cn2c(=N)n(CC(O)c3ccc(Cl)c(Cl)c3)c3ccccc32)cc1` (centres unmarked) [Compound 130699], the “acute reaction after injection” value (10 mg/kg IV) is given as “no acute reactions were noted”; the “acute reaction after injection” value (20 mg/kg IV, first two mice) was “relatively severe reaction marked by a mild seizure and reduced activity for several hours”. The “time after dosing at which peak brain levels achieved” value (10 mg/kg iv) came out at 30 min. The “peak levels in brain tissue” value (10 mg/kg iv, 30 minutes after dosing) is ~2.5 µg/g. Besides, for the setting “10 mg/kg iv, mice”, the brain penetration result is “good brain penetration”. In addition, the AUC was 485,627 min*ng/g (IV 10 mg/kg, brain) and 1530 ng·h/mL (male, C57BL/6, mouse, IV 10 mg/kg, plasma, read-out: AUC (area under the concentration-time curve) (converted)). Besides, the Clearance reads like this: (IV 10 mg/kg, brain) 0.4 g/min; (male, C57BL/6, mouse, IV 10 mg/kg, plasma, read-out: Clearance) 2.1 mL/min. Also, the Kp is ~5 (male, C57BL/6, mouse, intravenous, 10 mg/kg iv, read-out: peak brain concentrations relative to peak levels in plasma); 5.2 (male, C57BL/6, mouse, iv, IV 10 mg/kg, read-out: Blood Brain Penetration Ratio: AUC brain/AUC plasma); 4.8 (male, C57BL/6, mouse, iv, IV 10 mg/kg, read-out: Blood Brain Penetration Ratio: Cmax brain/Cmax plasma). Also, the concentration at 24 h (male, C57BL/6, mouse, brain, 10 mg/kg iv, 24 hours, read-out: brain levels persisting at 24 hours post-injection) came out at 5 ng/g. For the same molecule, the Cmax (as a rule, the maximum level reached in the sampled fluid or tissue) under setting [1] worked out at 2480 ng/g and the Cmax under setting [2] was 512 ng/mL. Also, the half-life (commonly the time in which the quantity being followed falls by half) worked out at 3.12 h under setting [1] and 1.52 h under setting [2].
